For assay [1], the target named is Melatonin receptor (Gallus gallus, UniProt P49288+P51050+P49285). Briefly: Binding affinity towards melatonin receptor, determined in chicken brain membranes using [2-125I]melatonin. Format: cell membranes, Membrane.
Assay [2] deals with Melanophore. Briefly: Effective concentration required to produce 50% of the maximal pigment aggregation in Xenopus laevis dermal melanophore cell line; No agonist effect detected at 100 uM. It counts as functional, cell-based, frog.
Assay [3] deals with Melanophore. Briefly: Inhibitory concentration against melatonin-induced pigment aggregation by 50% in Xenopus laevis dermal melanophore cell line. Format: functional, cell-based, frog.
Assay [4] has as its system Melanophore. Briefly: Inhibitory concentration against melatonin-induced pigment aggregation by 50% in Xenopus laevis dermal melanophore cell line; Antagonism detected at 100 uM but IC50 not calculated. It counts as functional, cell-based, frog.
In assay [5] the test system is Melanophore. Briefly: Effective concentration required to produce 50% of the maximal pigment aggregation in Xenopus laevis dermal melanophore cell line. Format: functional, cell-based, frog. The settings on record: Xenopus laevis, Melanophore.

Structures are written as SMILES. Some results are limits rather than exact numbers.

As a reminder, the Ki is a dissociation constant, usually derived from enzyme kinetics or from competition with a known ligand. A high value points to weaker binding. The term EC50 denotes the concentration at which the effect is half-maximal. Read a low EC50 as an effect from little substance. Broadly, the IC50 is the concentration that inhibits the measured activity by half. Turning to `Cn1c2c(c3cc(OC(F)(F)F)ccc31)C(CNC(=O)C1CCC1)CCC2` (stereo not drawn), the Ki in assay [1] amounted to 1.24 µM. In addition, the EC50 entry in assay [2] is “Not Active”. In assay [3], the IC50 worked out at 41 µM.
For `Cn1c2c(c3ccccc31)C(CNC(=O)C1CCC1)CC2` (stereo not drawn) the same measures were 5.7 µM, “Not Active” and 50 µM.
Consider `Cn1c2c(c3ccccc31)C(CNC(=O)C1CC1)CCC2` (stereo not drawn), for which, in assay [1], the Ki is 4.46 µM. Also, the EC50 result in assay [2] is recorded as “Not Active”. In assay [3], this molecule yielded an IC50 of 15 µM.
With `CCCC(=O)NCC1CCc2c1c1ccccc1n2C` (stereo not drawn), the Ki in assay [1] came out at 0.239 µM. In addition, the IC50 result in assay [4] is listed as “Antagonist”. A half-maximal response in assay [5] (EC50) required 2.63 µM.
As to `Cn1c2c(c3ccccc31)C(CNC(=O)C1CCC1)CCCC2` (stereo not drawn), the Ki in assay [1] was found to be 1.69 µM. Further, in assay [2], the EC50 entry was “Not Active”. Also, the IC50 in assay [3] was 44 µM.
The molecule `CCC(=O)NCC1CCCCc2c1c1ccccc1n2C` (stereo not drawn) showed a Ki in assay [1] of 0.129 µM. Further, the IC50 result in assay [4] was “Antagonist”. For the same molecule, the EC50 result in assay [2] is listed as “Not Active”.
In the case of `COc1ccc2c(c1)c1c(n2C)CCC1CNC(=O)C1CC1` (stereo not drawn), in assay [1], the Ki is 0.459 µM. Also, the EC50 result in assay [2] is given as “Not Active”. Further, the midpoint of inhibition in assay [3], the IC50, lay at 11 µM.
Turning to `CCCC(=O)NCC1CCCCc2c1c1cc(OC)ccc1n2C` (stereo not drawn), the Ki in assay [1] was found to be 0.0103 µM. The IC50 entry in assay [4] is “Antagonist”. In addition, a half-maximal effect in assay [5] (EC50) was put at 0.14 µM.
Regarding `Cn1c2c(c3ccccc31)C(CNC(=O)C(F)(F)F)CCCC2` (stereo not drawn), the Ki in assay [1] was > 10 µM. Besides, the EC50 entry in assay [2] was “Not Active”. Further, the IC50 entry in assay [3] is “Not Active”.
Molecule `CCC(=O)NCC1CCc2c1c1ccccc1n2C` (stereo not drawn) returned a Ki in assay [1] of 0.272 µM. In addition, the IC50 result in assay [4] is reported as “Antagonist”. The EC50 in assay [5] is 4.04 µM.
In turn, `COc1ccc2c(c1)c1c(n2C)CCCCC1CNC(=O)C1CCC1` (stereo not drawn) came in with a Ki in assay [1] of 0.1448 µM. Further, the EC50 entry in assay [2] is on record as “Not Active”. In assay [3], this molecule showed an IC50 of 18 µM.
As to `CCCCC(=O)NCC1CCc2c1c1ccccc1n2C` (stereo not drawn), in assay [1], the Ki was > 10 µM. Besides, the EC50 result in assay [2] is reported as “Not Active”. For the same molecule, in assay [3], the IC50 is 46 µM.
Consider `Cn1c2c(c3cc(Cl)ccc31)C(CNC(=O)C1CCC1)CCC2` (stereo not drawn), for which, in assay [1], the Ki worked out at 0.1872 µM. Besides, in assay [2], the EC50 result was “Not Active”. For the same molecule, the IC50 in assay [3] came to 14 µM.
For `CCCCC(=O)NCC1CCCCc2c1c1cc(OC)ccc1n2C` (stereo not drawn) the same measures were 0.471 µM, “Not Active” and 39 µM.
In assay [1], `Cn1c2c(c3ccccc31)C(CNC(=O)C1CC1)CC2` (stereo not drawn) gave a Ki of 5.1 µM. For the same molecule, the EC50 result in assay [2] was “Not Active”. Besides, the IC50 in assay [3] amounted to 59 µM.
Regarding `CC(=O)NCC1CCCCc2c1c1ccccc1n2C` (stereo not drawn), the Ki in assay [1] came to 0.424 µM. Also, the EC50 result in assay [2] is recorded as “Not Active”. In assay [3], this molecule yielded an IC50 of 54 µM.
`Cn1c2c(c3ccccc31)C(CNC(=O)C1CC1)CCCC2` (stereo not drawn) displayed a Ki in assay [1] of 1.22 µM. The EC50 result in assay [2] is “Not Active”. Besides, the IC50 in assay [3] turned out to be 56 µM.
On to `CCC(Br)C(=O)NC1CCc2[nH]c3ccccc3c2C1` (stereo not drawn), for which the Ki in assay [1] was > 10 µM. For the same molecule, the EC50 result in assay [2] was “Not Active”. In assay [3], this molecule gave an IC50 of 32 µM.
With `Cn1c2c(c3ccccc31)C(CNC(=O)C(F)(F)F)CCC2` (stereo not drawn), the Ki in assay [1] is > 10 µM. For the same molecule, in assay [2], the EC50 result is on record as “Not Active”. The IC50 in assay [3] was 35 µM.
For `CCCC(=O)NCC1CCCCc2c1c1ccccc1n2C` (stereo not drawn) the same measures were 0.084 µM, “Not Active” and 53 µM.
For `Cn1c2c(c3ccccc31)C(CNC(=O)C(F)(F)F)CC2` (stereo not drawn), the Ki in assay [1] was > 10 µM. Also, in assay [2], the EC50 result is reported as “Not Active”. The IC50 result in assay [3] was “Not Active”.
Turning to `O=C(NCCc1c(-c2ccccc2)[nH]c2ccccc12)C1CCC1`, the Ki in assay [1] came out at 0.565 µM. Besides, the EC50 result in assay [2] is on record as “Not Active”. In assay [3], this molecule registered an IC50 of 3.4 µM.
With `CC(=O)NCC1CCCc2c1c1ccccc1n2C` (single isomer, unassigned; (+)), the Ki in assay [1] came out at 0.708 µM. Moreover, the EC50 entry in assay [2] was “Not Active”. The molecule also showed an IC50 in assay [3] of 6.4 µM.
For `CCC(=O)NCC1CCCCc2c1c1cc(OC)ccc1n2C` (single isomer, unassigned; (+)) the same measures were 0.2015 µM, “Not Active” and “Not Active”.
In turn, `CCC(=O)NCC1CCCCc2c1c1cc(OC)ccc1n2C` (stereo in doubt; 11i) came in with a Ki in assay [1] of 0.007 µM. Moreover, in assay [4], the IC50 entry was “Antagonist”. In assay [5], this molecule displayed an EC50 of 0.091 µM.
Turning to `CC(=O)NCCc1c(Cc2ccccc2)[nH]c2ccccc12` [LUZINDOLE], the Ki in assay [1] was determined as 1.606 µM. The EC50 entry in assay [2] is recorded as “Not Active”. Moreover, in assay [3], the IC50 came to 2.1 µM.

(Values after ChEMBL document CHEMBL1131339 (J Med Chem, 1998).)
